Results taken from the NIST ThermoML archive (doi:10.1021/acs.jced.8b00931).
± gives the expanded uncertainty stated by the source.

What was measured:
[1] = Crystal; DSC
[2] = Molar enthalpy of transition or fusion; conditions: Crystal; DSC

Triple point temperature [1]: 393.39 ± 1.2 K
Molar enthalpy of transition or fusion [2]: 6.46 ± 0.232 kcal/mol
Compound: Nc1cc([N+](=O)[O-])ccc1Cl [2-chloro-5-nitroaniline]
